This assay concerns the target T1, ABCG2 (Homo sapiens, UniProt Q9UNQ0).
T1 construct: Recombinant ABCG2
T1 sequence (Q9UNQ0 1-655): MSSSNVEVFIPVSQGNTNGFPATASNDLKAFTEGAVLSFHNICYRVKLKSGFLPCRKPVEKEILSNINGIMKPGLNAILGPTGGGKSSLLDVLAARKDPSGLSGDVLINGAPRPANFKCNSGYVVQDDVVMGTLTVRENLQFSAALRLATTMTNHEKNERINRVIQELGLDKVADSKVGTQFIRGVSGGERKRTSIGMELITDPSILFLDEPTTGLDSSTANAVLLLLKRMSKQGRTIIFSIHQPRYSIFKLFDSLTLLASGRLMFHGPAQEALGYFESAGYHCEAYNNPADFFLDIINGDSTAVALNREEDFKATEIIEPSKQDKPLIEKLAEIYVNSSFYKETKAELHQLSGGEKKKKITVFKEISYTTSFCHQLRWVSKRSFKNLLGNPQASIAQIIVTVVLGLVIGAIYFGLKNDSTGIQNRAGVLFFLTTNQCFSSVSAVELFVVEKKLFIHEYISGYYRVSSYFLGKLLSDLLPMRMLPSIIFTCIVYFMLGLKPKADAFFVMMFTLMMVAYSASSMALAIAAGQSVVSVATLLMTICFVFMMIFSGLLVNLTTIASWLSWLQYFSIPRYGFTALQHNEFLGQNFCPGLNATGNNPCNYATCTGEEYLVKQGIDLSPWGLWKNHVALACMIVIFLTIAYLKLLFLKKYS
The class given is binding.

The values that follow come from paper PMC10708028, “Target Screen of Anti-Hyperuricemia Compounds from Cortex Fraxini In Vivo Based on ABCG2 and Bioaffinity Ultrafiltration Mass Spectrometry” (Molecules, 2023).

Turning to `COc1cc2ccc(=O)oc2c(O[C@@H]2O[C@H](CO)[C@@H](O)[C@H](O)[C@H]2O)c1O` [fraxin], the Kd was 141 µM.

One may read the Kd as the equilibrium constant for the complex coming apart.
